Measured values from PubChem BioAssay (NCI).
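In this assay, cells in 96-well plates receive the compound at five concentrations for 48 hours. Endpoints are linearly interpolated between the surrounding concentrations. The concentration for 50% growth inhibition is given as GI50. At the TGI there is no net growth.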

What was measured:
Assay in all cases: DTP human tumour cell line panel, 48 h
786-0 renal = system: 786-0 renal
ACHN renal = system: ACHN renal
COLO 205 colon = system: COLO 205 colon
HCT-15 colon = system: HCT-15 colon
RPMI-8226 leukemia = system: RPMI-8226 leukemia
SK-OV-3 ovarian = system: SK-OV-3 ovarian
TK-10 renal = system: TK-10 renal
UO-31 renal = system: UO-31 renal
RXF 393 renal = system: RXF 393 renal
MDA-MB-231 breast = system: MDA-MB-231 breast

Row | SMILES | TGI (786-0 renal) | TGI (ACHN renal) | TGI (COLO 205 colon) | TGI (HCT-15 colon) | TGI (RPMI-8226 leukemia) | TGI (SK-OV-3 ovarian) | TGI (TK-10 renal) | TGI (UO-31 renal) | TGI (RXF 393 renal) | GI50 (786-0 renal) | GI50 (ACHN renal) | GI50 (COLO 205 colon) | GI50 (HCT-15 colon) | GI50 (MDA-MB-231 breast) | TGI (MDA-MB-231 breast) | GI50 (RXF 393 renal) | GI50 (SK-OV-3 ovarian) | GI50 (TK-10 renal) | GI50 (UO-31 renal) | GI50 (RPMI-8226 leukemia)
1 | CC(=O)NC1C(OCc2ccccc2)OC(COC(=O)CCCCCCCCCCNc2ccc([N+](=O)[O-])c3[nH]c4ccccc4c(=O)c23)C(O)C1OC(C)C(=O)NC(C)C(=O)NC(CCC(N)=O)C(=O)OCc1ccccc1 (stereo not given) | > 100 µM | > 100 µM | > 100 µM | > 100 µM | > 100 µM | > 100 µM | > 100 µM | > 100 µM | – | – | – | – | – | – | – | – | – | – | – | –
2 | COC(=O)C(Cc1nc2ccccc2nc1C)/C(=N\NC(N)=O)C(=O)Nc1cccc([N+](=O)[O-])c1 (stereo not given) | > 100 µM | > 100 µM | > 100 µM | > 100 µM | > 100 µM | > 100 µM | > 100 µM | > 100 µM | > 100 µM | – | – | – | – | – | – | – | – | – | – | –
3 | O=C(COC(=O)c1cccc2c(=O)c3ccccc3[nH]c12)Nc1ccc(C(=O)O)cc1 | > 100 µM | > 100 µM | > 100 µM | – | – | > 100 µM | > 10 µM | > 100 µM | > 100 µM | – | – | – | – | – | – | – | – | – | – | –
4 | COc1ccc(C(=O)C(c2ccc(OCc3ccccc3)cc2)c2ccc(OCc3ccccc3)cc2)cc1 | > 100 µM | > 100 µM | > 100 µM | > 100 µM | > 100 µM | > 100 µM | > 100 µM | > 100 µM | > 100 µM | – | – | – | – | – | – | – | – | – | – | –
5 | CCCCCCCCn1ccc2cc(NC(=O)Cn3cc(CN4CCCCC4)nn3)ccc21 | 3.44 µM | 3.19 µM | 3.68 µM | 4.11 µM | – | 3.97 µM | 6.63 µM | 2.62 µM | 3.06 µM | 1.8 µM | 1.72 µM | 1.84 µM | 1.96 µM | 1.8 µM | 3.52 µM | 1.46 µM | 1.89 µM | 2.44 µM | 1.34 µM | –
6 | O=C(/C(=C\c1ccc(Cl)cc1)c1ccccc1)c1ccccc1 | > 100 µM | > 100 µM | > 100 µM | > 100 µM | > 100 µM | > 100 µM | > 100 µM | > 100 µM | – | – | – | – | – | – | – | – | – | – | – | –
7 | CC(C)(C)CC(N)=O | > 100 µM | > 100 µM | > 100 µM | > 100 µM | – | > 100 µM | > 100 µM | > 100 µM | – | – | – | – | – | – | > 100 µM | – | – | – | – | –
8 | CC(=O)Oc1ccc(/C(=C(\C)c2ccc(Cl)cc2)c2ccc(OCCN3CCCCC3)cc2)cc1 | 3.16 µM | 4.03 µM | 3.5 µM | 3.19 µM | 4.64 µM | 6.09 µM | – | 3.09 µM | 3 µM | 1.59 µM | 2.13 µM | 1.79 µM | 1.61 µM | 2.04 µM | 3.89 µM | 1.46 µM | 2.31 µM | – | 1.59 µM | 2.1 µM
9 | c1ccc2c(c1)N=C(c1cccc3ccccc13)CC(c1ccc3c(c1)OCO3)S2 (stereo not given) | > 100 µM | > 100 µM | > 100 µM | – | – | > 100 µM | > 100 µM | > 100 µM | > 100 µM | – | – | – | – | – | – | – | – | – | – | –
10 | C=C(C(=C)P(=S)(c1ccccc1)c1ccccc1)P(=S)(c1ccccc1)c1ccccc1 | > 100 µM | > 100 µM | > 100 µM | > 100 µM | > 100 µM | > 100 µM | > 100 µM | – | > 100 µM | – | – | – | – | – | – | – | – | – | – | –
